± gives the expanded uncertainty stated by the source.

The conditions of this data set: Crystal; DTA.
For `C(=C\c1ccccc1)/CN1CCN(C(c2ccccc2)c2ccccc2)CC1` [cinnarizine], the Normal melting temperature came out at 122.0 ± 0.4 °C.

Consider `CC(=O)CCCCn1c(=O)c2c(ncn2C)n(C)c1=O` [3,7-dimethyl-1-(5-oxohexyl)-3,7-dihydro-1H-purine-2,6-dione], for which the Normal melting temperature was 106 ± 0.4 °C.

`NC(=O)CN1CCCC1=O` [2-oxo-1-pyrrolidineacetamide]: the Normal melting temperature came out at 125 ± 0.4 °C.

Values taken from the NIST ThermoML archive (doi:10.1016/j.fluid.2014.01.041).
